Patent US12559863B2, “Macrocyclic modulators of disease associated protein misfolding and aggregation” (RESQ BIOTECH, priority 2017, dated 2026)
Where a SMILES comes first, the peptide text is derived from it.

Assays:
Aβ40 [1] = target: T1, Aβ40 (Homo sapiens, UniProt P05067); experiment: Circular dichroism of Aβ40 with cyclic peptide; format: biochemical; conditions: 50 μM Aβ, 33° C., 30 d
T1 construct: The main product of APP cleavage consists of 40 amino acids (Aβ40); purchased Eurogentec, Belgium; host or cells: chemical synthesis
Protocol: Synthetic Aβ40 and Aβ42 peptides were gently dissolved without vortexing in doubly deionized water to a final concentration of 100 μM. These solutions were then diluted by PBS addition (10 mM, pH 7.33) to achieve a final Aβ concentration of 50 μM.
Appropriate amounts of synthetic cyclic peptides were added to either 40 μM SOD1(A4V) or 50 μM Aβ solutions at the desired cyclic peptide:target protein molar ratio. SOD1(A4V) structural changes were monitored for 90 d at 25° C., under quiescent conditions. Aβ structural changes were monitored for 30 d at 33° C. under quiescent conditions. CD spectra in the range 190-260 nm were recorded on a JASCO J-715 spectropolarimeter (Jasco Co., Japan) using quartz cuvettes with 1 mm path length. Each reported spectrum is the average of three scans at a rate of 100 nm·min^−1 and a resolution of 0.5 nm.

Aβ40 [2] = target: T1, Aβ40; experiment: Thioflavin T dye-binding assay of Aβ40; format: biochemical; conditions: 30-d aged CD solutions
Protocol: For Aβ ThT staining, 100 μL of the 30-d aged 50 μM CD solutions were diluted in PBS (10 mM, pH 7.33) to form a 25 μM Aβ solution with 200 μL final volume. 2.5 μL from a stock solution of ThT (Sigma-Aldrich, USA) in PBS (10 mM, pH 7.33) was added to the prepared Aβ solutions to achieve a final ThT concentration of 5 μM. The mixture was agitated adequately by pipetting and immediately thereafter, fluorescence was monitored with excitation at 440 nm (EM slit=2.5 nm, PMT Voltage 700 V, response 0.4 s) using a HITACHI F-2500 (Japan) spectrofluorometer.

[3] = tested on: primary mouse hippocampal neurons; experiment: MTT cell viability in primary hippocampal neurons; format: cell-based; conditions: for neurotoxicity of Aβ40: 1 μM Aβ40, 1:1 and 2:1 peptides:Aβ; for neurotoxicity of Aβ40 / neurotoxicity of Aβ42: 24 h, MTT; for neurotoxicity of Aβ42: 1 μM Aβ42, 1:1 and 2:1 peptides:Aβ; for growth-promoting effects or cytotoxicity of peptide on its own: peptide alone, no Aβ
Protocol: The media/agents for primary neuronal cell cultures were purchased from Thermo Fisher Scientific (USA). Hippocampal neuronal cultures were obtained from postnatal day 1 female pups of C57BL/6 mice. Briefly, after being dissected, the hippocampus was incubated with 0.25% trypsin for 15 min at 37° C. The hippocampi were then rinsed in 10 mL of Hibernate containing 10% (v/v) heat-inactivated fetal bovine serum (FBS). Cultures were maintained in Neurobasal-A medium containing 2% B-27 supplement, 0.5 mM Gluta-MAX and 1% penicillin/streptomycin at 37° C. and 5% CO2. Half of the medium was replaced twice a week. Neuronal hippocampal cells were plated at a density of approximately 2×10^4 per well in 96-well plates and 5×10^5 per well in 24-well plates for MTT and induced cell death assays, respectively. After seven days of incubation in culture well plates, the primary hippocampal neurons were used for the cell viability measurements.
(§1) Solutions of synthetic Aβ40 or Aβ42 (10 μM) in PBS, preincubated at 37° C. (3 d for Aβ40 solutions and 1 d for Aβ42 solutions) in the presence or absence of synthetic cyclic peptides (1:1 and 2:1 ratio of peptides:Aβ), were diluted with fresh medium and transferred into wells at a 1 μM final Aβ concentration. Cell viability was determined using the MTT assay. MTT (3-[4,5-dimethylthiazol-2-yl]-2,5-diphenyl tetrazolium bromide) was purchased from Applichem (Germany). After 24 h of exposure to Aβ solutions, 100 μL of a 0.5 mg/mL stock solution of MTT in Neurobasal-A was added to each well of primary hippocampal neurons followed by a 3 h incubation at 37° C., while 100 μL of a 1 mg/mL stock solution of MTT in DMEM complete medium was added to each well of U87MG cells followed by a 4 h incubation at 37° C. The medium was then removed and the cells were diluted in DMSO. The relative formazan concentration was measured by determination of the absorbance at 540 nm using a plate reader (Tecan, Austria). Results were expressed as the percentage of MTT reduction, assuming that the absorbance of control (untreated) cells was 100%, and represent the mean of three independent experiments with six replicate wells for each condition. Induced cell death was also qualitatively examined by phase-contrast microscopy (Carl Zeiss, Axiovert 25 CFL, Germany) using the above solutions. In each run, the effect of solutions of plain synthetic peptides and plain Aβ40 or Aβ42 was independently checked to serve as internal control.

[4] = tested on: Aβ-exposed neuronal cells; experiment: Phase-contrast microscopy of Aβ-exposed neuronal cells; format: cell-based, mouse; conditions: pre-aggregated Aβ
Protocol: as §1, with “In each run, the effect of solutions of plain synthetic peptides and plain Aβ40 or Aβ42 was independently checked to serve as internal control.” left out

[5] = tested on: C. elegans strain CL2331 (Aβ3-42-GFP); experiment: Confocal microscopy of Aβ3-42-GFP deposits in C. elegans CL2331; format: in vivo, Caenorhabditis elegans; conditions: 10 μM AβC5-34 or 5 μM AβC5-116
Protocol: We followed standard procedures for C. elegans strains maintenance at 16° C. The following strains were used: CL2179: dvIs179 [myo-3p::GFP::3′UTR(long)+rol-6(su1006)] (available on the world wide web at: cgc.cbs.umn.edu/strain.php?id=26134); CL2331: dvIs37 [myo-3p::GFP::Aβ(3-42)+rol-6(su1006)] (available on the world wide web at: cgc.cbs.umn.edu/strain.php?id=26135); CL4176: smg-1(cc546) I; dvIs27 [myo-3::Aβ(1-42)-let 3′UTR(pAF29); pRF4 (rol-6(su1006)] (available on the world wide web at: cgc.cbs.umn.edu/strain.php?id=7663).
For Aβ3-42 deposit measurements, synchronized (at the L4 larval stage) CL2331 and CL2179 (control strain) animals exposed to solvent (0.26% DMSO), 10 μM AβC5-34 or 5 μM AβC5-116 and grown at 20° C. (to induce aggregation) until day 2 of adulthood were collected. Animals were mounted onto 2% agarose pads on glass slides, anesthetized with 10 mM levamisole and observed at RT using a Leica TCS SPE confocal laser scanning microscope (Leica Lasertechnik GmbH, Germany). The LAS AF software was used for image acquisition. At least twenty animals/condition in three independent experiments were processed. Images of whole worms and focused images in the posterior area of nematodes were acquired with 10×0.45 and 20×0.70 numerical aperture, respectively.

## C[C@@H]1NC(=O)[C@H](CO)NC(=O)[C@H]([C@@H](C)O)NC(=O)[C@@H]2CCCN2C(=O)[C@H](CO)NC1=O [AβC5-34, cyclo-SASPT] (cyclo(ASPTS))
Aβ40 [1]
  effect on aggregation process of Aβ40 (CD): did not have the same effect and resulted in the appearance of a low-intensity negative peak
Aβ40 [2]
  Aβ40 fibril formation (ThT): almost unaffected
[3]
  neurotoxicity of Aβ40: markedly inhibit the neurotoxicity
  neurotoxicity of Aβ42: markedly inhibit the neurotoxicity
  growth-promoting effects or cytotoxicity of peptide on its own: did not exhibit general growth-promoting effects or considerable cytotoxicity
[4]
  morphology of Aβ-exposed neuronal cells: marked recovery of the Aβ-induced alterations
[5]
  Aβ deposits, CL2331: significant reduction of Aβ deposits

## C[C@@H]1NC(=O)[C@H]([C@@H](C)O)NC(=O)[C@H](CCCNC(=N)N)NC(=O)[C@H](CC(=O)O)NC(=O)[C@H](Cc2ccccc2)NC1=O [AβC5-116, cyclo-TAFDR] (cyclo(AFDRT))
Aβ40 [1]
  effect on aggregation process of Aβ40 (CD): strongly inhibit the aggregation of Aβ40
Aβ40 [2]
  Aβ40 fibril formation (ThT): reduced
[3]
  neurotoxicity of Aβ40: markedly inhibit the neurotoxicity
  neurotoxicity of Aβ42: markedly inhibit the neurotoxicity
  growth-promoting effects or cytotoxicity of peptide on its own: did not exhibit general growth-promoting effects or considerable cytotoxicity
[4]
  morphology of Aβ-exposed neuronal cells: marked recovery of the Aβ-induced alterations
[5]
  Aβ deposits, CL2331: significant reduction of Aβ deposits

## cyclo-TWSVW (cyclic) [SOD1C5-4]
Aβ40 [1]
  effect on aggregation process of Aβ40 (CD): did not have any effect
Aβ40 [2]
  Aβ40 fibril formation (ThT): did not have any effect
